Laboratory results taken from patent publication US20260224688A1, “HELPER LIPIDS FOR NUCLEIC ACID DELIVERY” (SANOFI PASTEUR INC., priority 2023, published 2026).
Several values for one entry are separate records, joined by “and”; a condition that tells them apart may be missing. Equal entries are not always repeated.

Experiments:
hEPO [1] = assay: IM EPO expression of LNPs containing phosphatidylcholine helper lipids; format: in vivo, female BALB/cJ mice; conditions: PC/CL-C formulations, helper lipid 13.5 mol %, DOPE = 1
Protocol: EPO expression studies were conducted with female BALB/cJ mice 6-8 weeks of age. Mice were dosed with […] EPO mRNA in 30 μL of LNPs by a single intramuscular (IM) injection into the gastrocnemius leg muscle. Blood samples were taken 6 and 24 hours post injection and hEPO levels were measured in the blood serum of the mice using an ELISA assay according to the manufacture's protocol. WO2022/099003 A1 also describes an in vivo assay for intramuscular administration (e.g. on page 46, paragraph [00206]).
Lipid nanoparticles were formulated containing the four lipid components shown below, complexed with a hEPO messenger RNA. • Cationic lipid CL-C, 40 mol % • Helper lipid, 13.5 mol % • Cholesterol, 44.8 mol % • DMG-PEG-2K (1,2-dimyristoyl-rac-glycero-3-methoxypolyethyleneglycol), 1.67 mol %
EPO expression studies were performed as described above in Example 3.

hEPO [2] = assay: IV delivery using phosphatidylcholine helper lipids (EPO expression); format: in vivo, female BALB/cJ mice; conditions: cationic lipid CL-0137, helper lipid 13.5 mol %; 0.017 μg EPO mRNA tail vein; 6 hours; DOPE = 1
Protocol: Lipid nanoparticles were formulated containing the four lipid components shown below, complexed with a hEPO messenger RNA. • Cationic lipid CL-0137, 40 mol % • Helper lipid, 13.5 mol % • Cholesterol, 44.8 mol % • DMG-PEG-2K (1,2-dimyristoyl-rac-glycero-3-methoxypolyethyleneglycol), 1.67 mol %
EPO expression studies were conducted with female BALB/cJ mice 6-8 weeks of age. Mice were dosed with 0.017 μg EPO mRNA LNPs in a volume of 5 ul by a single tail vein injection. Blood samples were taken 6 hours post injection and hEPO levels were measured in the blood serum of the mice using an ELISA assay according to the manufacture's protocol.

hEPO [3] = assay: IV EPO expression of LNPs (tail vein injection); format: in vivo, female BALB/cJ mice; conditions: cationic lipid CL-0137, helper lipid 30 mol %; 0.017 μg EPO mRNA tail vein; 6 hours; DOPE = 1
Outline: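 Female BALB/cJ mice (6-8 weeks) received a single tail-vein injection of 0.017 μg hEPO mRNA in LNPs (cationic lipid CL-0137/helper lipid/cholesterol/DMG-PEG-2K, 40:30:28.5:1.5 mol %). Serum hEPO was measured by ELISA on blood taken 6 h post-dose.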

[4] = Dynamic light scattering of lipid nanoparticles (size, PDI); format: physicochemical; conditions: LNP with cationic lipid CL-A
Outline: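 LNPs of cationic lipid:DMG-PEG2000:cholesterol:helper lipid at 40:1.5:30:28.5 molar ratio, made by Process A. Diluted in 10% trehalose (about 0.1 mg/ml mRNA) and sized by DLS at 173° backscatter with a 633-nm laser, giving size and PDI.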

[5] = mRNA encapsulation efficiency of lipid nanoparticles; format: physicochemical; conditions: LNP with cationic lipid CL-A
Outline: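 Encapsulation by RiboGreen assay run with and without 0.1% Triton-X 100. LNPs made by ethanolic lipid mixing with acidic aqueous mRNA, molar ratio 40:1.5:30:28.5 (cationic lipid:DMG-PEG2000:cholesterol:helper lipid), ultrafiltered/diafiltered, stored at −80° C. Size/PdI by dynamic light scattering after dilution in 10% trehalose to about 0.1 mg/ml mRNA.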

hEPO [6] = assay: IM EPO expression of LNPs containing new helper lipids (hEPO in serum by ELISA); format: in vivo, female BALB/cJ mice; conditions: for 6-h EPO / 24-h EPO: single IM injection; for 24-h EPO: serum 24 hours post injection
Outline: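 Female BALB/cJ mice aged 6-8 weeks received one intramuscular gastrocnemius injection of […] hEPO mRNA in 30 μL LNPs. The LNPs contained cationic lipid, phospholipid helper, cholesterol and DMG-PEG-2K at 40:30:28.5:1.5 mol %. Serum hEPO was measured by ELISA at 6 and 24 h.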

Structure (SMILES)	Normalized Mean EPO expression (hEPO [1])	Normalized mean IV EPO expression using PC LNPs (hEPO [2])	other results
CCCCCCCCC(CCCCCCCC)OC(=O)CCCCCCC(=O)OC[C@@H](COP(=O)([O-])OCC[N+](C)(C)C)OC(=O)CCCCCCC(=O)OC(CCCCCCCC)CCCCCCCC [Compound 42, (S)-2,3-Bis((8-(heptadecan-9-yloxy)-8-oxooctanoyl)oxy)propyl (2-(trimethylammonio)ethyl) phosphate]	1.1	1.16	–
CCCCCCCCCCCCCCCCCC(=O)OC[C@H](COP(=O)([O-])OCC[N+](C)(C)C)OC(=O)CCCCCCCCCCCCCCCCC [DSPC, distearoylphosphatidylcholine, reference compound]	–	0.89	–
CCCCCCCCC(CCCCCCCC)OC(=O)CCCCCCC(=O)O[C@@H](COC(=O)CCCCC(=O)OC(CCCCCCCC)CCCCCCCC)COP(=O)(O)OCC[N+](C)(C)C [Compound 48, (S)-3-((6-(Heptadecan-9-yloxy)-6-oxohexanoyl)oxy)-2-((8-(heptadecan-9-yloxy)-8-oxooctanoyl)oxy)propyl (2-(trimethylammonio)ethyl) phosphate]	1.1	1.08	–
CCCCCCCCC(CCCCCCCC)OC(=O)CCCCCCCCC(=O)O[C@@H](COC(=O)CCCCCCC(=O)OC(CCCCCCCC)CCCCCCCC)COP(=O)(O)OCC[N+](C)(C)C [Compound 44, (S)-2-((10-(Heptadecan-9-yloxy)-10-oxodecanoyl)oxy)-3-((8-(heptadecan-9-yloxy)-8-oxooctanoyl)oxy)propyl (2-(trimethylammonio)ethyl) phosphate]	1	1.32	–
CCCCCCCCCCCCCCCC(=O)OC[C@@H](COP(=O)(O)OCC[N+](C)(C)C)OC(=O)CCCCCCC(=O)OC(CCCCCCCC)CCCCCCCC [Compound 56, (S)-2-((8-(Heptadecan-9-yloxy)-8-oxooctanoyl)oxy)-3-(palmitoyloxy)propyl (2-(trimethylammonio)ethyl) phosphate]	1	1.52	–
CCCCCCCCCCCCCCCC(=O)OC[C@H](COP(=O)(O)OCC[N+](C)(C)C)OC(=O)CCCCCCC(=O)OC(CCCCCCCC)CCCCCCCC [Compound 57, (R)-2-((8-(Heptadecan-9-yloxy)-8-oxooctanoyl)oxy)-3-(palmitoyloxy)propyl (2-(trimethylammonio)ethyl) phosphate]	0.9	–	–
CCCCCCCCC(CCCCCCCC)OC(=O)CCCCCCCCC(=O)OC[C@@H](COP(=O)(O)OCC[N+](C)(C)C)OC(=O)CCCCCCC(=O)OC(CCCCCCCC)CCCCCCCC [Compound 52, (S)-3-((10-(Heptadecan-9-yloxy)-10-oxodecanoyl)oxy)-2-((8-(heptadecan-9-yloxy)-8-oxooctanoyl)oxy)propyl (2-(trimethylammonio)ethyl) phosphate]	1	1.53	–
CCCCCCCCC(CCCCCCCC)C(=O)OCCCCCC(=O)OC[C@@H](COP(=O)(O)OCC[N+](C)(C)C)OC(=O)CCCCCOC(=O)C(CCCCCCCC)CCCCCCCC [Compound 54, (S)-2,3-Bis((6-((2-octyldecanoyl)oxy)hexanoyl)oxy)propyl (2-(trimethylammonio)ethyl) phosphate]	0.5	0.97	–
CCCCCCCCC(CCCCCCCC)OC(=O)CCCCCCC(=O)OC[C@H](COP(=O)([O-])OCC[N+](C)(C)C)OC(=O)CCCCCCC(=O)OC(CCCCCCCC)CCCCCCCC [Compound 41, (R)-2,3-Bis((8-(heptadecan-9-yloxy)-8-oxooctanoyl)oxy)propyl (2-(trimethylammonio)ethyl) phosphate]	1.3	–	Normalized Mean IV EPO expression (hEPO [3]): 1.7
CCCCCCCCC(CCCCCCCC)OC(=O)CCCCCCCC(=O)OC[C@@H](COP(=O)(O)OCC[N+](C)(C)C)OC(=O)CCCCCCC(=O)OC(CCCCCCCC)CCCCCCCC [Compound 50, (S)-2-((8-(Heptadecan-9-yloxy)-8-oxooctanoyl)oxy)-3-((9-(heptadecan-9-yloxy)-9-oxononanoyl)oxy)propyl (2-(trimethylammonio)ethyl) phosphate]	1	1.6	–
CCCCCCCC/C=C\CCCCCCCC(=O)OC[C@H](COP(=O)(O)OCCN)OC(=O)CCCCCCC/C=C\CCCCCCCC [DOPE, dioleoylphosphatidylethanolamine, reference compound]	1	1	Polydispersity Index (PDI) [4]: 0.06 and 0.100; Size ([4]; hEPO mRNA, 40:30:28.5:1.5): 129 nm and 119 nm; Encapsulation efficiency (EE) [5]: 91%; 6-h EPO (hEPO [6]; CL-A LNP, 0.1 μg EPO mRNA in 30 μL, serum 6 hours post injection): 26.23 ng/mL; 24-h EPO (hEPO [6]; CL-A LNP): 19.128 ng/mL; 6-h EPO (hEPO [6]; CL-B LNP, serum 6 hours post injection): 19.62 ng/mL; 24-h EPO (hEPO [6]; CL-B LNP): 15.03 ng/mL; 6-h EPO (hEPO [6]; CL-C LNP): 16.38 ng/mL; 6-h EPO (hEPO [6]; CL-C LNP, (6-h)): 20.96 ng/mL; Normalized Mean EPO expression (hEPO [6]; helper lipid CL-C formulations, IM, DOPE = 1): 1; Normalized Mean IV EPO expression (hEPO [3]): 1
CCCCCCCCC(CCCCCCCC)OC(=O)CCCCCCCC(=O)O[C@@H](COC(=O)CCCCCCC(=O)OC(CCCCCCCC)CCCCCCCC)COP(=O)(O)OCC[N+](C)(C)C [Compound 46, (S)-3-((8-(Heptadecan-9-yloxy)-8-oxooctanoyl)oxy)-2-((9-(heptadecan-9-yloxy)-9-oxononanoyl)oxy)propyl (2-(trimethylammonio)ethyl) phosphate]	1.1	1.34	–
